Values of other authors as cited in patent US20230226121A1, “Honey Foam” (priority 2022, published 2023).

Legend:
[1] = tested on: Staphylococcus aureus ATCC 29213
[2] = tested on: Escherichia Coli ATCC 25922

For CCN(CC)CC(=O)Nc1c(C)cccc1C [lidocaine], the MIC [1] is listed as 20 Mg/ml and the MIC [2] is listed as 5 Mg/ml.
